Source: patent US8530177B2, “Chloral hydrate detection” (Randox Laboratories Limited, priority 2010, dated 2013)
Values after ≈ are worked out from the molar mass of the structure shown.

How the values were obtained:
[1] = system: antibody of the invention (polyclonal IgG raised against Immunogen II, TCG-BTG); experiment: Competitive ELISA for TCG: cross-reactivity and specificity of the antibody; type: binding, sheep; conditions: for IC50 = standard concentration which produces 50% B/B0: hapten A-HRP conjugate
Procedure: TCG was coupled to bovine thyroglobulin (Immunogen II, Example 5). The resulting immunogen was administered to adult sheep on a monthly basis to provide target-specific polyclonal antisera. IgG was extracted from the antisera via caprylic acid/ammonium sulphate precipitation of immunoglobulin. Microtitre plates (Thermo Scientific, 468667) were coated with antibody (125 μl) in coating buffer (10 mM Tris pH 8.5) at 37° C. for 2 hours. Antibody was coated at 1.25 μg/ml. The plates were then washed. 50 μl of sample/standard (trichloroethyl glucuronide, Randox LK811; chloral hydrate, Sigma C8383-100 g; trichloroacetic acid, Fisher Scientific T/3000/50; ETG, Randox LK589) was added to the appropriate wells in triplicate, followed by 75 μl of hapten A-HRP conjugate at ¼K and incubated at 25° C. for 1 hour. The plates were then washed and 125 μl of TMB (Randox, 4380-15) was added to each well and left at room temperature for 20 mins in the dark. The reaction was stopped using 125 μl of 0.2M sulphuric acid. The absorbances were read at 450 nm with an ELISA microplate reader (BIO-TEK Instruments, Elx800) and the means calculated. Antibody specificity and sensitivity were then determined.
Competitive ELISA results in the Table 1 below highlight the specificity of the antibody of the invention towards TCG.

[2] = average person, drinking water guidance; cited from earlier work
[3] = twenty four hours following a single oral dose; cited from earlier work
[4] = metabolite of chloral hydrate; cited from earlier work

Row | Structure (SMILES) | % CR = percentage cross-reactivity based on 100% specificity to TCG ([1]; competitive ELISA) | IC50 = standard concentration which produces 50% B/B0 ([1]; competitive ELISA) | % B/B0 ([1]; standard 31.25 ng/ml) | A450 (absorbance at 450 nm) ([1]; standard 31.25 ng/ml) | % B/B0 ([1]; standard 62.5 ng/ml) | A450 (absorbance at 450 nm) ([1]; standard 62.5 ng/ml) | % B/B0 ([1]; standard 125 ng/ml) | A450 (absorbance at 450 nm) ([1]; standard 125 ng/ml) | % B/B0 ([1]; standard 250 ng/ml) | A450 (absorbance at 450 nm) ([1]; standard 250 ng/ml) | % B/B0 ([1]; standard 500 ng/ml) | A450 (absorbance at 450 nm) ([1]; standard 500 ng/ml) | % B/B0 ([1]; standard 1000 ng/ml) | A450 (absorbance at 450 nm) ([1]; standard 1000 ng/ml) | % B/B0 ([1]; standard 2000 ng/ml) | A450 (absorbance at 450 nm) ([1]; standard 2000 ng/ml) | further results
1 | CCO[C@@H]1O[C@H](C(=O)O)[C@@H](O)[C@H](O)[C@H]1O [EtG, ethyl glucuronide] | <<0.69% | >>2000 ng/ml | 86.7% | 1.183 | 83.9% | 1.144 | 84.8% | 1.157 | 82.8% | 1.130 | 80.2% | 1.094 | 75.6% | 1.031 | 69.6% | 0.950 | cross-reactivity with the antibody of the invention (in words) ([1]; competitive ELISA, Table 1): does not cross-react
2 | O=C(O)[C@H]1O[C@@H](OCC(Cl)(Cl)Cl)[C@H](O)[C@@H](O)[C@@H]1O [TCG, trichloroethanol glucuronide] | 100% | 13.724 ng/mL (≈ 0.0422 µM) |  |  |  |  |  |  |  |  |  |  |  |  |  |  | % B/B0 ([1]; standard 1.25 ng/ml): 86.6%; A450 (absorbance at 450 nm) ([1]; standard 1.25 ng/ml): 1.313; % B/B0 ([1]; standard 2.5 ng/ml): 81.0%; A450 (absorbance at 450 nm) ([1]; standard 2.5 ng/ml): 1.228; % B/B0 ([1]; standard 5 ng/ml): 70.0%; A450 (absorbance at 450 nm) ([1]; standard 5 ng/ml): 1.061; % B/B0 ([1]; standard 10 ng/ml): 57.5%; A450 (absorbance at 450 nm) ([1]; standard 10 ng/ml): 0.872; % B/B0 ([1]; standard 20 ng/ml): 42.3%; A450 (absorbance at 450 nm) ([1]; standard 20 ng/ml): 0.641; % B/B0 ([1]; standard 40 ng/ml): 30.7%; A450 (absorbance at 450 nm) ([1]; standard 40 ng/ml): 0.465; % B/B0 ([1]; standard 80 ng/ml): 24.6%; A450 (absorbance at 450 nm) ([1]; standard 80 ng/ml): 0.373
3 | OC(O)C(Cl)(Cl)Cl [Chloral Hydrate, 2,2,2-trichloroethanediol] |  |  |  |  |  |  |  |  |  |  |  |  |  |  |  |  | Tolerable Daily Intake (TDI) [2]: 0.3 mg/day; excreted in the urine as TCG [3]: ~28%; excreted in the urine as trichloroethanol [3]: approximately 0.7%
4 | O=C(O)C(Cl)(Cl)Cl [Trichloroacetic Acid, trichloroacetic acid] | <<0.69% | >>2000 ng/ml | 91.2% | 1.372 | 92.5% | 1.391 | 92.4% | 1.389 | 87.2% | 1.312 | 85.4% | 1.284 | 81.8% | 1.230 | 72.7% | 1.094 | half-life [4]: approximately 4 days
